Experimental data reported in patent publication US9187411B2, “Leukotriene B4 antagonist compound” (Eli Lilly and Company, priority 2012, dated 2015).

Experiments:
[1] = test system: LTB4-induced phosphorylation of ERK in monocytes; experiment: Human pERK assay in whole blood; type: cell-based; conditions: Monocyte, 10 nM LTB4
Method: The ability of the compound of Example 2 to block LTB4-induced signaling through BLT1 was assessed in whole blood obtained from healthy human volunteers and from 129SvEv mice that are the model strain for preclinical AAA efficacy evaluation.
Whole blood is collected from human donors in 10 mL K2 ethylenediaminetetraacetic acid (EDTA) vacutainer tubes (BD Biosciences). Aliquots of whole blood are pre-warmed at 37° C. for 20 min. 10 point dose response curves of test compounds are assayed at final concentrations of 20 nM-10 μM. 10 point ½ serial dilutions of compound at 1000× of final assayed concentration are prepared in DMSO. Compound is then diluted to 10× in Dulbecco's Phosphate Buffered Saline (DPBS) (DMSO concentration is now 1%). 10 μL of compound dilutions (at 10× in DPBS) or 1% DMSO in DPBS are added to wells of a 2.0 mL volume 96 deep well plate (Nunc) and placed in 37° C. heat block.
Immediately thereafter, 80 μL whole blood is added and incubated for 20 min at 37° C. […] Samples are warmed to room temperature and analyzed on a Beckman Coulter FC500 flow cytometer. […] Data are analyzed with WinList software (Verity Software House) to determine mean and median fluorescent intensity values for pERK-PE from monocyte population.

[2] = target: T1, high-affinity (BLT1) LTB4 receptor (Homo sapiens, UniProt Q15722); experiment: FLIPR calcium release assay (LTB4-induced calcium mobilization); type: cell-based; conditions: CHO-K1 cells expressing BLT1, 8 nM LTB4, n of 2
T1 construct: expressed in transfected cells
T1 sequence (Q15722 whole entry): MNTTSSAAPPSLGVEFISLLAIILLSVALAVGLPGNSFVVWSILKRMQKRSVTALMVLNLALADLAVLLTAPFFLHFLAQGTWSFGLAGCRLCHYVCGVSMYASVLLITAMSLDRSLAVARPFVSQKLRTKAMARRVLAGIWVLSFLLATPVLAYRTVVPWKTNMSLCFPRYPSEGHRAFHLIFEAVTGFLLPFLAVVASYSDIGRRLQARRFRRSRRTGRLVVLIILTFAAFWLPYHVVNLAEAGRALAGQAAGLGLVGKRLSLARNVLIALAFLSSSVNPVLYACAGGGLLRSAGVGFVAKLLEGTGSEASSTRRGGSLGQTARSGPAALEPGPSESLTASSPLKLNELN
Method: hBLT1/CHO-K1 Stable Xcell Line Preparations: Human BLT1 receptor DNA (National Center for Biotechnology Information (NCBI), Reference Sequence NM_181657) is synthesized and cloned into expression vector pcDNA3.1/Hygro(+) (Invitrogen V87020). The cDNA expression vector construct is transfected into Chinese hamster ovary (CHO-K1) cells (American Type Culture Collection (ATCC) CCL-61) using Lipofectamine 2000 (Invitrogen) as transfection reagent. Cells are cultured in selective Dulbecco's Modified Eagle Medium (DMEM) containing 200 μg/mL Hygromycin, 24 hours post transfection. Single clones are isolated and screened for BLT1 expression and function using Western Blot analysis and Fluorometric Imaging Plate Reader (FLIPR®) calcium release assay.
Chinese hamster ovary (CHO-K1) cells stably expressing the high-affinity (BLT1) LTB4 receptor are seeded at 10,000 cells/well in a 96 well plate (Corning) in growth medium containing DMEM/F-12 (3:1) w/o phenol red (Invitrogen), 5% fetal bovine serum (FBS) (Hyclone), 20 mM HEPES (Invitrogen), 200 μg/mL Hygromycin B (Invitrogen) and 40 μg/mL L-Proline (Sigma). The plate is incubated for 22-24 h at 37° C. 5% CO2 then growth medium is replaced with 50 μL/well of test medium containing Roswell Park Memorial Institute (RPMI) RPMI-1640 w/o phenol red, 20 mM HEPES (both from Invitrogen), and 0.2% w/v Bovine Serum Albumin (Sigma). […]

How did the IC50 [1] turn out when `CCCc1c(NC(=O)CC(C)(C)C(=O)[O-])cccc1OCCCOc1cc(O)c(-c2ccc(F)cc2)cc1CC.[Na+]` [Example 2, Sodium 4-[[3-[3-[2-ethyl-4-(4-fluorophenyl)-5-hydroxy-phenoxy]propoxy]-2-propyl-phenyl]amino]-2,2-dimethyl-4-oxo-butanoate] was run?
The IC50 was 814 nM.

And the Kb ([2]; read-out: inhibition of LTB4-induced calcium mobilization Kb)?
The Kb was 0.98 nM.

And the IC50 ([2]; read-out: inhibition of LTB4-induced calcium mobilization relative IC50)?
Its IC50 is 6.48 nM.
